Where a SMILES comes first, the peptide text is derived from it. [ ]: non-standard residue; d: D form. NMePhe(4-NO2) = CN[C@@H](Cc1ccc([N+](=O)[O-])cc1)C(=O)O; dPhe(4-Cl) = N[C@H](Cc1ccc(Cl)cc1)C(=O)O; d2Nal = N[C@H](Cc1ccc2ccccc2c1)C(=O)O; dCit = NC(=O)NCCC[C@@H](N)C(=O)O; d3Pal = N[C@H](Cc1cccnc1)C(=O)O

In this assay the target is T1, LHRH (Rattus norvegicus, UniProt P30969).
T1 construct: endogenous in cells
T1 sequence (P30969 1-327): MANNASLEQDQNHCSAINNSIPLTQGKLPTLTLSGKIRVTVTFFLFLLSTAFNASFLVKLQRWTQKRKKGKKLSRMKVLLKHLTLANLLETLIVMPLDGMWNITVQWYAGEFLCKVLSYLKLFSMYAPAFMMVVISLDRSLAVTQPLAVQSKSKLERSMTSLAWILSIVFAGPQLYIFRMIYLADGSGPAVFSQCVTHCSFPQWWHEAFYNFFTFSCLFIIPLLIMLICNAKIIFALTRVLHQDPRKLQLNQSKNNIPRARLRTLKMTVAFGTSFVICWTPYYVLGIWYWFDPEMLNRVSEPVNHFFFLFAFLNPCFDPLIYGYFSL
As to the kind of experiment: in vitro test for LHRH antagonist potency (pA2) against the agonist leuprolide. Format: cell-based. The following applies: negative logarithm of the concentration of antagonist which shifts the response curve produced by the agonist leuprolide to two-fold higher concentration. The procedure:
Representative compounds of the present invention were evaluated in in vitro tests for receptor binding (pKI) and for LHRH antagonist potency (pA2). The tests employed the methods detailed in F. Haviv, et al. J. Med. Chem, 32: 2340-2344 (1989). The receptor binding affinities (pKI) are the negative logarithms of the equilibrium dissociation constants, and the values of pA2 are the negative logarithms of the concentration of antagonist which shift the response curve produced by the agonist leuprolide to two-fold higher concentration. (Leuprolide is the LHRH agonist having the structure 5-ox--Pro^1 --His^2 --Trp^3 --Ser^4 -- Tyr^5 --D--Leu^6 --Leu^7 --Arg^8 --Pro^9 --NHEt and is disclosed and claimed in U.S. Pat. No. 4,005,063.) Typically pA2 values of 9.5 or greater are indicative of good LHRH antagonist potency.

As to `CC(=O)N[C@H](Cc1ccc2ccccc2c1)C(=O)N[C@H](Cc1ccc(Cl)cc1)C(=O)N[C@H](Cc1cccnc1)C(=O)N[C@@H](CO)C(=O)N(C)[C@@H](Cc1ccc([N+](=O)[O-])cc1)C(=O)N[C@H](CCCNC(N)=O)C(=O)N[C@@H](CC(C)C)C(=O)N[C@@H](CCCNC(=N)N)C(=O)N1CCC[C@H]1C(=O)N[C@H](C)C(N)=O` [Example 1, NAc--D-2Nal--D-4ClPhe--D-3Pal--Ser--NMe(4-NO2)Phe--D--Cit--Leu--Arg--Pro--DAlaNH2] (Ac-[d2Nal][dPhe(4-Cl)][d3Pal]S[NMePhe(4-NO2)][dCit]LRP[dA]-NH2), the Kb is 5.5 pM. Consider “NAc--D-2Nal--D-4ClPhe--D-3Pal--Ser--NMeTyr--D-(4-Atza)Phe--Leu--Lys(Isp)--Pro--D--AlaNH2 [Example 4]”, for which the pA2 is on record as 10.35. On the same count and under the same terms, the value for “NAc--D2Nal--D4ClPhe--D3Pal--Ser--NMe(4-Atza)Phe--DLyS(Nic)--Leu--Lys(Isp)-- ProDAlaNH2 [Example 3]” was 11.22. Turning to “NAc--D-2Nal--D-4ClPhe--D-3Pal--Ser--NMe--(4-Atza)Phe--D--(4-Atza)Phe--Leu --Lys(Isp)--Pro--D--AlaNH2 [Example 5]”, the pA2 is listed as 10.68.

The values are drawn from US5491217A, “LHRH antagonists having modified aminoacyl residues at positions 5 and 6” (TAP Holding Inc., priority 1994, dated 1996).
